# According to paper PMC5218480 (PLoS ONE, 2017):
# Test system: MV-4-11 cells
# Test: Gene expression microarray analysis (Affymetrix PrimeView) and GSEA
# Type: cell-based, human
# Set-up: RFU PODN (11730768_x_at) / Fold change /veh PODN (11730768_x_at) / RFU LINC00158 (11744669_a_at) / Fold change /veh LINC00158 (11744669_a_at) / RFU DUSP10 (11751237_a_at) / Fold change /veh DUSP10 (11751237_a_at) / RFU ID3 (11757404_x_at) / Fold change /veh ID3 (11757404_x_at) / RFU PLEKHG5 (11737974_s_at) / Fold change /veh PLEKHG5 (11737974_s_at) / RFU LRRC4B (11730491_at) / Fold change /veh LRRC4B (11730491_at) / RFU GIMAP4 (11747438_a_at) / Fold change /veh GIMAP4 (11747438_a_at) / RFU KRT8 (11758183_x_at) / Fold change /veh KRT8 (11758183_x_at) / RFU CNN1 (11734310_a_at) / Fold change /veh CNN1 (11734310_a_at) / RFU VPS37D (11726825_at) / Fold change /veh VPS37D (11726825_at) / RFU C10orf10 (11716522_x_at) / Fold change /veh C10orf10 (11716522_x_at) / RFU KIR2DL2 /// KIR2DL4 /// KIR2DL5A /// KIR2DL5B /// KIR2DS1 /// KIR2DS2 /// KIR2DS3 /// KIR2DS4 /// KIR3DL3 /// KIR3DL3 /// KIR3DS1 (11738374_at) / Fold change /veh KIR2DL2 /// KIR2DL4 /// KIR2DL5A /// KIR2DL5B /// KIR2DS1 /// KIR2DS2 /// KIR2DS3 /// KIR2DS4 /// KIR3DL3 /// KIR3DL3 /// KIR3DS1 (11738374_at) / RFU C1QL1 (11718748_at) / Fold change /veh C1QL1 (11718748_at) / RFU TMPRSS4 (11747572_a_at) / Fold change /veh TMPRSS4 (11747572_a_at) / RFU HAMP (11756126_x_at) / Fold change /veh HAMP (11756126_x_at) / RFU RNFT2 (11725882_a_at) / Fold change /veh RNFT2 (11725882_a_at) / RFU NR4A2 (11747474_a_at) / Fold change /veh NR4A2 (11747474_a_at) / RFU ABCC12 (11746883_a_at) / Fold change /veh ABCC12 (11746883_a_at) / RFU TMEM136 (11760407_x_at) / Fold change /veh TMEM136 (11760407_x_at) / RFU CLDN22 /// WWC2 (11732394_at) / Fold change /veh CLDN22 /// WWC2 (11732394_at) / RFU HLA-DPB1 (11760878_x_at) / Fold change /veh HLA-DPB1 (11760878_x_at) / RFU SPINT1 (11716480_a_at) / Fold change /veh SPINT1 (11716480_a_at) / RFU GAP43 (11754022_s_at) / Fold change /veh GAP43 (11754022_s_at) / RFU A4GNT (11735810_at) / Fold change /veh A4GNT (11735810_at) / RFU PRB3 (11715151_x_at) / Fold change /veh PRB3 (11715151_x_at) / RFU TUBB4B (11761932_at) / Fold change /veh TUBB4B (11761932_at) / RFU CAPN14 (11732068_a_at) / Fold change /veh CAPN14 (11732068_a_at) / RFU TMCC2 (11721928_a_at) / Fold change /veh TMCC2 (11721928_a_at) / RFU IRGQ (11745062_a_at) / Fold change /veh IRGQ (11745062_a_at) / RFU FAM174B (11720279_a_at) / Fold change /veh FAM174B (11720279_a_at) / RFU TMPRSS4 (11748680_a_at) / Fold change /veh TMPRSS4 (11748680_a_at) / RFU FAM212B (11763350_a_at) / Fold change /veh FAM212B (11763350_a_at) / RFU PLEKHG5 (11743358_a_at) / Fold change /veh PLEKHG5 (11743358_a_at) / RFU ZSCAN30 (11745921_a_at) / Fold change /veh ZSCAN30 (11745921_a_at) / RFU CMKLR1 (11741424_a_at) / Fold change /veh CMKLR1 (11741424_a_at) / RFU LOC101060620 /// MAPK8IP1 (11723275_at) / Fold change /veh LOC101060620 /// MAPK8IP1 (11723275_at) / RFU SPTSSB (11747773_x_at) / Fold change /veh SPTSSB (11747773_x_at) / RFU PRSS12 (11739890_at) / Fold change /veh PRSS12 (11739890_at) / RFU BIN1 (11741810_x_at) / Fold change /veh BIN1 (11741810_x_at) / RFU WNT11 (11732464_a_at) / Fold change /veh WNT11 (11732464_a_at) / RFU C10orf10 (11716521_a_at) / Fold change /veh C10orf10 (11716521_a_at) / RFU C5orf56 (11738089_at) / Fold change /veh C5orf56 (11738089_at) / RFU CYB561 (11721691_x_at) / Fold change /veh CYB561 (11721691_x_at) / RFU ANKRD19P (11752326_a_at) / Fold change /veh ANKRD19P (11752326_a_at) / RFU OR2T12 /// OR2T33 /// OR2T8 (11738714_s_at) / Fold change /veh OR2T12 /// OR2T33 /// OR2T8 (11738714_s_at) / RFU VCAN (11748164_a_at) / Fold change /veh VCAN (11748164_a_at) / RFU JSRP1 (11732532_at) / Fold change /veh JSRP1 (11732532_at) / RFU KRTAP10-11 (11738290_x_at) / Fold change /veh KRTAP10-11 (11738290_x_at) / RFU MYO3A (11730013_a_at) / Fold change /veh MYO3A (11730013_a_at) / RFU EBF3 (11725865_a_at) / Fold change /veh EBF3 (11725865_a_at) / RFU CAMK2N1 (11719241_x_at) / Fold change /veh CAMK2N1 (11719241_x_at) / RFU C5orf56 (11738088_a_at) / Fold change /veh C5orf56 (11738088_a_at) / RFU OLFML3 (11715873_a_at) / Fold change /veh OLFML3 (11715873_a_at) / RFU LOC100653217 /// NTM (11731650_a_at) / Fold change /veh LOC100653217 /// NTM (11731650_a_at) / RFU MAPK11 (11762145_a_at) / Fold change /veh MAPK11 (11762145_a_at) / RFU FIZ1 (11724087_x_at) / Fold change /veh FIZ1 (11724087_x_at) / RFU OASL (11726364_x_at) / Fold change /veh OASL (11726364_x_at) / RFU SOX15 (11748057_x_at) / Fold change /veh SOX15 (11748057_x_at) / RFU CD79A (11719716_a_at) / Fold change /veh CD79A (11719716_a_at) / RFU HIST1H1D (11736915_at) / Fold change /veh HIST1H1D (11736915_at) / RFU CASKIN2 (11723855_a_at) / Fold change /veh CASKIN2 (11723855_a_at) / RFU LOC730098 (11760151_x_at) / Fold change /veh LOC730098 (11760151_x_at) / RFU OR4N2 (11742367_at) / Fold change /veh OR4N2 (11742367_at) / RFU PRRT2 (11749266_a_at) / Fold change /veh PRRT2 (11749266_a_at) / RFU SNX32 (11753110_a_at) / Fold change /veh SNX32 (11753110_a_at) / RFU CDHR5 (11726645_a_at) / Fold change /veh CDHR5 (11726645_a_at) / RFU RCAN1 (11760418_a_at) / Fold change /veh RCAN1 (11760418_a_at) / RFU FAM167A (11723789_a_at) / Fold change /veh FAM167A (11723789_a_at) / RFU FAM26E (11764081_at) / Fold change /veh FAM26E (11764081_at) / RFU ISYNA1 (11749810_s_at) / Fold change /veh ISYNA1 (11749810_s_at) / RFU ACY1 (11761880_at) / Fold change /veh ACY1 (11761880_at) / RFU 11764098_at / Fold change /veh 11764098_at / RFU SAMD14 (11745864_x_at) / Fold change /veh SAMD14 (11745864_x_at) / RFU NPB (11741838_a_at) / Fold change /veh NPB (11741838_a_at) / RFU TMPRSS6 (11731388_a_at) / Fold change /veh TMPRSS6 (11731388_a_at) / RFU KRTAP10-2 (11738614_at) / Fold change /veh KRTAP10-2 (11738614_at) / RFU ARHGAP8 /// PRR5-ARHGAP8 (11727945_x_at) / Fold change /veh ARHGAP8 /// PRR5-ARHGAP8 (11727945_x_at) / RFU KRTAP5-7 /// NADSYN1 (11734609_at) / Fold change /veh KRTAP5-7 /// NADSYN1 (11734609_at) / RFU RASL12 (11751679_a_at) / Fold change /veh RASL12 (11751679_a_at) / RFU CDKN2B (11736163_a_at) / Fold change /veh CDKN2B (11736163_a_at) / RFU PRF1 (11729649_at) / Fold change /veh PRF1 (11729649_at) / RFU, ZNF638 /// ZNF638-IT1 / Fold change vs veh, ZNF638 /// ZNF638-IT1 / RFU, PANK3 / Fold change vs veh, PANK3 / RFU, SH3YL1 / Fold change vs veh, SH3YL1 / RFU, ZEB2 / Fold change vs veh, ZEB2 / RFU, NRIP1 / Fold change vs veh, NRIP1 / RFU, PTTG1IP / Fold change vs veh, PTTG1IP / RFU, CAPN2 / Fold change vs veh, CAPN2 / RFU, MED14 / Fold change vs veh, MED14 / RFU, SNORA58 / Fold change vs veh, SNORA58 / RFU, C1orf63 / Fold change vs veh, C1orf63 / RFU, LRRFIP1 / Fold change vs veh, LRRFIP1 / RFU, NDUFAF7 / Fold change vs veh, NDUFAF7 / RFU, SLC12A2 / Fold change vs veh, SLC12A2 / RFU, IBTK / Fold change vs veh, IBTK / RFU, ESF1 / Fold change vs veh, ESF1 / Fold change vs veh, TMEM50B / RFU, TAOK1 / Fold change vs veh, TAOK1 / RFU, ACBD3 / Fold change vs veh, ACBD3 / RFU, TMA16 / Fold change vs veh, TMA16 / RFU, RWDD3 / Fold change vs veh, RWDD3 / RFU, BCAT1 / Fold change vs veh, BCAT1 / RFU, EDEM3 / Fold change vs veh, EDEM3 / RFU, TMEM33 / Fold change vs veh, TMEM33 / RFU, WDR75 / Fold change vs veh, WDR75 / RFU, AHCTF1 / Fold change vs veh, AHCTF1 / RFU, TFRC / Fold change vs veh, TFRC / RFU, ZDHHC17 / Fold change vs veh, ZDHHC17 / RFU, NOM1 / Fold change vs veh, NOM1 / RFU, ARL8B / Fold change vs veh, ARL8B / RFU, ZBTB11 / Fold change vs veh, ZBTB11 / RFU, TAMM41 / Fold change vs veh, TAMM41 / RFU, KIAA1704 /// LOC100996395 / Fold change vs veh, KIAA1704 /// LOC100996395 / RFU, ING1 / Fold change vs veh, ING1 / RFU, TRMT61B / Fold change vs veh, TRMT61B / RFU, FUBP3 / Fold change vs veh, FUBP3 / RFU, TP53 / Fold change vs veh, TP53 / RFU, TNKS2 / Fold change vs veh, TNKS2 / RFU, ZFP14 / Fold change vs veh, ZFP14 / RFU, ACTR2 / Fold change vs veh, ACTR2 / RFU, PPP3R1 / Fold change vs veh, PPP3R1 / RFU, PIK3R1 / Fold change vs veh, PIK3R1 / RFU, HNRNPA1 / Fold change vs veh, HNRNPA1 / RFU, RNF170 / Fold change vs veh, RNF170 / RFU, ZNF28 / Fold change vs veh, ZNF28 / RFU, RNGTT / Fold change vs veh, RNGTT / RFU, OGT / Fold change vs veh, OGT / RFU, BRD1 / Fold change vs veh, BRD1 / RFU, MARS / Fold change vs veh, MARS / RFU, ZNF655 / Fold change vs veh, ZNF655 / RFU, FAHD1 / Fold change vs veh, FAHD1 / RFU, BDP1 / Fold change vs veh, BDP1 / RFU, LRRCC1 / Fold change vs veh, LRRCC1 / RFU, ARID1A / Fold change vs veh, ARID1A / RFU, ZNF146 / Fold change vs veh, ZNF146 / RFU, ZNF330 / Fold change vs veh, ZNF330 / RFU, GPN3 / Fold change vs veh, GPN3 / RFU, C9orf123 / Fold change vs veh, C9orf123 / RFU, N4BP2L2 / Fold change vs veh, N4BP2L2 / RFU, ARFIP1 / Fold change vs veh, ARFIP1 / RFU, FAM179B / Fold change vs veh, FAM179B / RFU, BCL10 / Fold change vs veh, BCL10 / RFU, UHRF1BP1L / Fold change vs veh, UHRF1BP1L / RFU, BET1 / Fold change vs veh, BET1 / RFU, CNOT2 / Fold change vs veh, CNOT2 / RFU, ZNF268 / Fold change vs veh, ZNF268 / Fold change vs veh, ZNF507 / RFU, DGCR2 / Fold change vs veh, DGCR2 / RFU, WDSUB1 / Fold change vs veh, WDSUB1 / Fold change vs veh, HSP90B1 /// MIR3652 / RFU, ADSS / Fold change vs veh, ADSS / RFU, GK / Fold change vs veh, GK / RFU, ZNF148 / Fold change vs veh, ZNF148 / RFU, TAF9 / Fold change vs veh, TAF9 / RFU, SLC1A5 / Fold change vs veh, SLC1A5 / RFU, SLMO2 / Fold change vs veh, SLMO2 / RFU, ABCC4 / Fold change vs veh, ABCC4 / RFU, LOC101060439 /// RAP1B / Fold change vs veh, LOC101060439 /// RAP1B / RFU, RFX7 / Fold change vs veh, RFX7 / RFU, GTPBP10 / Fold change vs veh, GTPBP10 / RFU, CNEP1R1 / Fold change vs veh, CNEP1R1 / RFU, BIVM-ERCC5 /// ERCC5 / Fold change vs veh, BIVM-ERCC5 /// ERCC5 / RFU, ILF3 / Fold change vs veh, ILF3 / RFU 11762660_at / Fold change /veh 11762660_at / RFU VCAN (11757783_s_at) / Fold change /veh VCAN (11757783_s_at) / RFU DDX43 (11728927_at) / Fold change /veh DDX43 (11728927_at) / RFU KRT8 (11758188_x_at) / Fold change /veh KRT8 (11758188_x_at) / RFU NKD1 (11759106_at) / Fold change /veh NKD1 (11759106_at) / RFU SRD5A1 (11742802_a_at) / Fold change /veh SRD5A1 (11742802_a_at) / RFU TPSAB1 /// TPSB2 (11721975_s_at) / Fold change /veh TPSAB1 /// TPSB2 (11721975_s_at) / RFU GSTM3 (11746129_a_at) / Fold change /veh GSTM3 (11746129_a_at) / RFU IL23R (11737362_x_at) / Fold change /veh IL23R (11737362_x_at) / RFU TMEM51 (11727254_a_at) / Fold change /veh TMEM51 (11727254_a_at) / RFU PIWIL2 (11732686_x_at) / Fold change /veh PIWIL2 (11732686_x_at) / RFU ORM1 (11744905_x_at) / Fold change /veh ORM1 (11744905_x_at) / RFU CCDC152 (11743942_at) / Fold change /veh CCDC152 (11743942_at) / RFU ECM1 (11717891_a_at) / Fold change /veh ECM1 (11717891_a_at) / RFU IL23R (11748794_a_at) / Fold change /veh IL23R (11748794_a_at) / RFU TNFAIP8L3 (11732012_x_at) / Fold change /veh TNFAIP8L3 (11732012_x_at) / RFU MBOAT4 (11741988_at) / Fold change /veh MBOAT4 (11741988_at) / RFU 11764193_at / Fold change /veh 11764193_at / RFU TMEM53 (11763286_at) / Fold change /veh TMEM53 (11763286_at) / RFU MAGEB2 (11727129_at) / Fold change /veh MAGEB2 (11727129_at) / RFU TMEM200A (11744735_a_at) / Fold change /veh TMEM200A (11744735_a_at) / RFU CCDC152 (11751479_a_at) / Fold change /veh CCDC152 (11751479_a_at) / RFU FAM211A (11726209_a_at) / Fold change /veh FAM211A (11726209_a_at) / RFU RGS16 (11746705_a_at) / Fold change /veh RGS16 (11746705_a_at) / RFU VCAN (11755009_s_at) / Fold change /veh VCAN (11755009_s_at) / RFU RHOB (11743442_s_at) / Fold change /veh RHOB (11743442_s_at) / RFU RGS16 (11720943_a_at) / Fold change /veh RGS16 (11720943_a_at) / RFU RGS16 (11720944_at) / Fold change /veh RGS16 (11720944_at) / RFU, VPS4B / Fold change vs veh, VPS4B / RFU, CREB1 / Fold change vs veh, CREB1 / RFU, DNAJC13 / Fold change vs veh, DNAJC13 / RFU, GNAQ / Fold change vs veh, GNAQ / RFU, CDK5R1 / Fold change vs veh, CDK5R1 / RFU, ZRANB3 / Fold change vs veh, ZRANB3 / RFU, CUL4A / Fold change vs veh, CUL4A / RFU, CCNY / Fold change vs veh, CCNY / RFU, UFL1 / Fold change vs veh, UFL1 / RFU, COG3 / Fold change vs veh, COG3 / RFU, DIAPH2 / Fold change vs veh, DIAPH2 / RFU, SKA2 / Fold change vs veh, SKA2 / RFU, AFF3 / Fold change vs veh, AFF3 / RFU, LMF1 / Fold change vs veh, LMF1 / RFU, IPO11 / Fold change vs veh, IPO11 / RFU, DFFB / Fold change vs veh, DFFB / RFU, FOXP1 / Fold change vs veh, FOXP1 / RFU, CARD8 / Fold change vs veh, CARD8 / RFU, STRN3 / Fold change vs veh, STRN3 / RFU, ADK / Fold change vs veh, ADK / RFU, RASSF2 / Fold change vs veh, RASSF2 / RFU, WIPF1 / Fold change vs veh, WIPF1 / RFU, LARP1B / Fold change vs veh, LARP1B / RFU, RASA1 / Fold change vs veh, RASA1 / RFU, RB1 / Fold change vs veh, RB1 / RFU, PPFIA1 / Fold change vs veh, PPFIA1 / RFU, MAT2A / Fold change vs veh, MAT2A / RFU, CCT5 / Fold change vs veh, CCT5 / RFU, WDR92 / Fold change vs veh, WDR92 / RFU, CUX1 / Fold change vs veh, CUX1 / RFU, TTC7A / Fold change vs veh, TTC7A / RFU, TMEM135 / Fold change vs veh, TMEM135 / RFU, DEPTOR / Fold change vs veh, DEPTOR / RFU, CPM / Fold change vs veh, CPM / RFU, DNAJB6 / Fold change vs veh, DNAJB6 / RFU, CACNA2D3 / Fold change vs veh, CACNA2D3 / RFU, DTX4 / Fold change vs veh, DTX4 / RFU, TFCP2 / Fold change vs veh, TFCP2 / RFU, GMCL1 /// GMCL1P1 / Fold change vs veh, GMCL1 /// GMCL1P1 / RFU, AEBP2 / Fold change vs veh, AEBP2 / RFU, SNHG1 /// SNORD22 /// SNORD25 /// SNORD26 /// SNORD27 /// SNORD28 /// SNORD29 /// SNORD31 / Fold change vs veh, SNHG1 /// SNORD22 /// SNORD25 /// SNORD26 /// SNORD27 /// SNORD28 /// SNORD29 /// SNORD31 / Fold change (Aza/veh), C12orf56 (ProbeSet 11735607_a_at) / Fold change (ACY-1035/veh), C12orf56 (ProbeSet 11735607_a_at) / Fold change (Aza/veh), FGFR1OP (ProbeSet 11751329_s_at) / Fold change (ACY-1035/veh), FGFR1OP (ProbeSet 11751329_s_at) / Fold change (Aza/veh), VPS36 (ProbeSet 11739960_a_at) / Fold change (ACY-1035/veh), VPS36 (ProbeSet 11739960_a_at) / RFU SYPL1 (11715823_x_at) / Fold change /veh SYPL1 (11715823_x_at) / RFU IGFBP7 (11715501_s_at) / Fold change /veh IGFBP7 (11715501_s_at) / RFU REEP3 (11722064_at) / Fold change /veh REEP3 (11722064_at) / RFU IGLL1 (11728026_x_at) / Fold change /veh IGLL1 (11728026_x_at): dose or concentration left out as unconfirmed
# Details: ProbeSet 11731093_s_at; LIST B
smiles,measurement,value
Nc1ncn([C@@H]2O[C@H](CO)[C@@H](O)[C@H]2O)c(=O)n1 [azacitidine],"RFU, BRD1",186.03 RFU
